Data taken from patent US20070010538A1, “Inhibition of pathogenic processes related to tissue trauma” (priority 1998, published 2007).

Columns and labels:
[1] = tested on: collagen type I gene expression; assay: Northern blot for collagen type I gene expression in myometrial and leiomyosarcoma cells; assay type: cell-based, human; settings: increasing concentrations, about 48 hours
Procedure: Myometrial and leiomyosarcoma cells were taken from the same patient and were plated into 10 cm plates in DMEM supplemented with 10% FCS. When the cells reached 80% confluence, the medium was replaced by serum free DMEM plus 0.1% BSA for 48 hours, washed and exposed to increasing concentrations of Halofuginone in the same medium for about 48 hours at about 37° C. The cells were then harvested and subjected to RNA extraction and Northern blot analysis for collagen type I gene expression.

[2] = tested on: collagen type I gene expression; assay: Northern blot for collagen type I gene expression in human skin fibroblasts; assay type: cell-based; settings: primary culture
Procedure: (§1) Next, human skin fibroblasts were taken from a subject and were maintained in primary culture. Control cells were treated with vehicle while Halofuginone-treated cells were treated with Halofuginone as previously described. The cells were then harvested and subjected to RNA extraction and Northern blot analysis for collagen type I gene expression and for cKrox gene expression.

cKrox gene expression = assay: Northern blot for cKrox gene expression in human skin fibroblasts; assay type: cell-based; settings: primary culture
Procedure: as §1

[3] = tested on: MMP2 (72 kDa type IV collagenase); assay: Gelatin zymography of type IV collagenase activity in T50 bladder carcinoma cell cultures; assay type: cell-based
Procedure: Sub-confluent cell cultures were incubated for 6-24 h in serum-free DMEM. The collagenolytic activity was determined on a gelatin impregnated (1 mg/ml. Difco, Detroit, Mich.) SDS-PAGE 8% gel. Briefly, culture media samples were separated on the substrate impregnated gels under non reducing conditions, followed by 30 min incubation in 2.5% Triton X-100 (BDH, England). The gels were then incubated for 16 h at 37° C. in 50 mM Tris, 0.2 M NaCl, 5 mM CaCl2, 0.02% Brij 35 (weight/volume) at pH 7.5. At the end of incubation period, the gels were stained with 0.5% Coomassie G250 (Bio-Rad Richmond Calif.) in methanol/acetic acid/H2O (30:10:60). The intensity of the various bands was determined on a computerized densitometer (Molecular Dynamics type 300A).

[4] = tested on: cell invasion through matrigel ECM; assay: Boyden chamber invasion assay; assay type: cell-based; settings: data not shown
Excerpt: Such inhibition supports the inclusion of type IV collagenase inhibition as part of the extracellular matrix economy mechanism, in which Halofuginone inhibits undesirable pathological processes such as tumor growth, progression and metastasis, as described previously.

H19 gene = assay: Northern blot for H19 gene expression in bladder carcinoma cell lines; assay type: cell-based, human; settings: 130 ng/ml
Procedure: RT112 and 5376 human bladder carcinoma cell lines were cultured in the absence and presence of Halofuginone (130 ng/ml, added 24 h or 72 h after seeding), and the expression of the H19 gene was evaluated by Northern blot analysis ([…]. et al., Arterioscler. Thromb. Vasc. Biol., Vol. 17, p. 194-202, 1997). […] Such inhibition also supports the inclusion of the inhibition of H19 gene expression as part of the extracellular matrix economy mechanism, as described previously.

αv integrin subunit = assay: Northern blot for integrin αv mRNA in MDA 435 breast carcinoma cells; assay type: cell-based, human; settings: MDA 435 cells
Procedure: (§2) Therefore, the effect of Halofuginone was investigated on the expression of αv, β3 and β5 integrin subunits in the highly aggressive MDA 435 human breast carcinoma cell line. Cells were cultured in the absence (FIG. 4, lanes A & B) or presence of increasing concentrations (10-400 ng/ml) of Halofuginone for 24 h (lane C: 400 ng/ml), 48 h (lanes D-G: 10, 50, 200, and 400 ng/ml, respectively) or 72 h (FIG. 4, lane H: 400 ng/ml). Total RNA was extracted, subjected to 1.1% formaldehyde-agarose gel electrophoresis, transferred to a nylon membrane and hybridized with ^32P-labeled PCR probe corresponding to αv. […] This effect was […] at higher concentrations (200-400 ng/ml) of Halofuginone (FIG. 4, lanes F-H). Next, RT-PCR was used to analyze the effect of Halofuginone on expression of the β3 and β5 integrin chains by the MDA 435 breast carcinoma cells. […] In contrast, there was no effect on expression of the β5 mRNA. As the αvβ3 integrin complex plays an important role in tumor angiogenesis, the anti-angiogenic effect of Halofuginone may be mediated in part by its inhibition of the β3 gene expression.

β3 integrin chain = assay: RT-PCR for β3 integrin chain in MDA 435 breast carcinoma cells; assay type: cell-based, human; settings: MDA 435 cells, 24 h, 200 ng/ml
Procedure: as §2

β5 integrin chain = assay: RT-PCR for β5 integrin chain in MDA 435 breast carcinoma cells; assay type: cell-based, human; settings: MDA 435 cells, 24 h, 10-400 ng/ml
Procedure: as §2

[5] = tested on: Ang II-induced cardiac fibrosis; assay: Ang II-induced cardiac fibrosis in rats: histology and collagen volume quantitation (Sirius red); assay type: in vivo, rat
Procedure: The experimental method was as follows. Male Sprague-Dawley rats were divided into four groups. Two groups were chronically infused with Ang II at the rate of 0.150 ng/min by implanted mini-pump. This dosage regimen will induce severe cardiac fibrosis. The other two groups of rats, control rats, were injected with saline. One group of Ang II-treated rats and one control group were daily injected intraperitoneally with 16 micrograms of Halofuginone. At the end of the experimental period, the rats were sacrificed and the heart was removed and weighed. Heart samples were taken for histological examination. Briefly, the tissue samples were collected into phosphate-buffered saline (PBS) and fixed overnight in 4% paraformaldehyde in PBS at 4° C. Serial 5 μm sections were prepared after the samples had been dehydrated in graded ethanol solutions, cleared in chloroform and embedded in Paraplast. Differential staining of collagenous and non-collagenous proteins was performed with 0.1% Sirius red and 0.1% fast green as a counter-stain in picric acid. This procedure stains collagen red [Gascon-Barre, M., et al., J. Histochem. Cytochem., 37:377-381, 1989]. […] Indeed, the ventricular collagen volume fraction (CVF) was increased by threefold (p<0.05) in rats treated with Ang II, compared to rats treated with either Halofuginone alone or Halofuginone plus Ang II. In addition, the ventricular CVF for control rats was identical to that for rats treated with Halofuginone alone.

collagen α1(I) gene = assay: Ang II rat model: in situ hybridization of heart tissue with rat collagen α1(I) probe; assay type: in vivo; settings: rats given both Halofuginone and Ang II vs Ang II alone
Procedure: (§3) The experimental method was as follows. Male Sprague-Dawley rats were divided into four groups. Two groups were chronically infused with Ang II at the rate of 0.150 ng/min by implanted mini-pump. This dosage regimen will induce severe cardiac fibrosis. The other two groups of rats, control rats, were injected with saline. One group of Ang II-treated rats and one control group were daily injected intraperitoneally with 16 micrograms of Halofuginone. At the end of the experimental period, the rats were sacrificed and the heart was removed and weighed. Heart samples were then hybridized with a probe for rat collagen α1(I) expression, or with a probe for TGF β1 expression. For hybridization with one of the genetic probes, the sections were deparafinized in xylene, rehydrated through a graded series of ethanol solutions, rinsed in distilled water for 5 minutes and then incubated in 2×SSC at 70° C. for 30 minutes. The sections were then rinsed in distilled water and treated with pronase, 0.125 mg/ml in 50 mM Tris-HCl, 5 mM EDTA, pH 7.5, for 10 minutes. After digestion, the slides were rinsed with distilled water, post-fixed in 10% formalin in PBS and blocked in 0.2% glycine. After blocking, the slides were rinsed in distilled water, rapidly dehydrated through graded ethanol solutions and air-dried for several hours. […]

TGF β = assay: Ang II rat model: in situ hybridization of heart tissue with TGF-β1 probe; assay type: in vivo; settings: rats given Ang II plus Halofuginone vs Ang II
Procedure: as §3

cytokine IL-1β release = assay: Cytokine IL-1β release assay (MDS Panlabs); assay type: cell-based
Procedure: (§4) The ability of Halofuginone to inhibit various biochemical processes according to a set of assays for determining the percent inhibition of specific binding or activity of particular cellular proteins is described in greater detail in Table 1 below. The assays were performed by MDS Panlabs Inc. (Bothell, […]., USA). These assays included: the inhibition of release of the cytokines IL-1β and TNF-α; and the inhibition of the transcription of NF-κB.

cytokine TNF-α release = assay: Cytokine TNF-α release assay (MDS Panlabs); assay type: cell-based
Procedure: as §4

NF-κB transcription = NF-κB transcription assay (MDS Panlabs); assay type: cell-based
Procedure: as §4

collagen α1(I) mRNA = assay: Collagen α1(I) mRNA level in primary human fibroblasts; assay type: cell-based; settings: tested at the level of RNA
Procedure: The same protocol was used as previously. Primary human fibroblasts were treated for 1 hr with 10^−8 M Halofuginone. […] Arrays include 265 genes known to be involved in various types of cell interactions.

O=C(CC1NCCC[C@H]1O)Cn1cnc2cc(Br)c(Cl)cc2c1=O (stereo partly drawn) [Halofuginone]
collagen type I gene expression (products at 5.4 and 4.8 kb) [1]: inhibited collagen type I gene expression
collagen type I gene expression [2]: inhibiting collagen type I gene expression
cKrox gene expression (cKrox gene expression): promoted cKrox gene expression
inhibition of the activity of MMP2 (72 kDa type IV collagenase) ([3]; 25 ng/ml): profound inhibition
inhibition of the activity of MMP2 (72 kDa type IV collagenase) ([3]; 100 ng/ml): almost complete inhibition
cell invasion through matrigel ECM [4]: inhibit cell invasion
expression of the H19 gene (H19 gene; 5376 bladder carcinoma cell line): substantial reduction
expression of the H19 gene (H19 gene; RT112 bladder carcinoma cell line): substantial reduction
αv mRNA expression (up regulation effect) (αv integrin subunit; 200-400 ng/ml): minimal
αv mRNA expression (αv integrin subunit; 48 h, 10 and 50 ng/ml): up regulation
β3 mRNA expression (β3 integrin chain): almost complete inhibition
β5 mRNA expression (β5 integrin chain): no effect
Ang II-induced morphological changes in rat heart (histology) ([5]; Ang II-infused rats, 16 micrograms daily intraperitoneally): substantially inhibited
ventricular CVF ([5]; Halofuginone alone, without Ang II, two week period): did not alter
ventricular collagen volume (CVF) ([5]; rats given both Ang II and Halofuginone vs Ang II alone, 16 micrograms daily i.p.): markedly reduced
expression of collagen α1(I) gene in rat heart (collagen α1(I) gene): marked reduction
Ang II-induced increase in expression of mRNA for TGF β in rat heart (TGF β): not affected
IC50 (cytokine IL-1β release): 31.7 nM
IC50 (cytokine TNF-α release): 6.8 nM
IC50 (NF-κB transcription): 25 nM
collagen α1(I) mRNA (collagen α1(I) mRNA): reduced
